± gives the expanded uncertainty stated by the source. Blank lines part the entries; values can stand above or below the compound they belong to.
Details: Liquid, Ebulliometric method (Recirculating still)

vapor or sublimation pressure (456.93 K): 10 ± 1 kPa
vapor or sublimation pressure (474.79 K): 20 ± 1 kPa
vapor or sublimation pressure (525.1 K): 99 ± 1 kPa
Compound: OCCCCCCO [1,6-hexanediol]

vapor or sublimation pressure (424.91 K): 7.79 ± 0.51 kPa
vapor or sublimation pressure (431.2 K): 10 ± 1 kPa
vapor or sublimation pressure (441.21 K): 14.56 ± 0.52 kPa
vapor or sublimation pressure (450.08 K): 20 ± 1 kPa
vapor or sublimation pressure (460.47 K): 28.55 ± 0.59 kPa
vapor or sublimation pressure (474.33 K): 44.63 ± 0.63 kPa
vapor or sublimation pressure (480.72 K): 54.37 ± 0.72 kPa
vapor or sublimation pressure (488.62 K): 68.77 ± 0.79 kPa
vapor or sublimation pressure (496.14 K): 85.45 ± 0.89 kPa
vapor or sublimation pressure (501 K): 99 ± 1 kPa
vapor or sublimation pressure (504.86 K): 108.77 ± 1 kPa
vapor or sublimation pressure (512 K): 131.95 ± 1.2 kPa
vapor or sublimation pressure (518.78 K): 157.68 ± 1.3 kPa
vapor or sublimation pressure (523.92 K): 179.21 ± 1.5 kPa
vapor or sublimation pressure (531.44 K): 216.3 ± 1.6 kPa
Compound: COC(=O)CCCCC(=O)OC [dimethyl 1,6-hexanedioate]

vapor or sublimation pressure (337.69 K): 101.3 ± 1.6 kPa
Compound: CO [methanol]

vapor or sublimation pressure (373.15 K): 101.3 ± 1.6 kPa
Compound: O [water]

From the NIST ThermoML archive (doi:10.1021/acs.jced.9b00306)
